SMILES strings stand for the structures.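 Following 48 hours of exposure in 96-well plates, responses at five concentrations were used to interpolate endpoints linearly. Abbreviation: GI50, concentration required for 50% inhibition of growth. The concentration for full growth arrest is given as TGI.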 Some results are limits rather than exact numbers.

Some test systems named below: MOLT-4 leukemia; HOP-62 NSCLC; MCF7 breast; A549 NSCLC; HCC-2998 colon; UACC-257 melanoma; TK-10 renal; M14 melanoma; SK-MEL-28 melanoma; SF-295 CNS.
Common to all, as to experiment: growth of human tumour cells (NCI), 48 h

On to `NS(=O)(=O)c1ccc(NC2(C(=O)O)CCCC2)cc1`, for which the TGI in the assay on MOLT-4 leukemia, in the assay with HOP-62 NSCLC, in the assay with MCF7 breast, with A549 NSCLC, in the assay on HCC-2998 colon and in the assay on UACC-257 melanoma was greater than 100 µM throughout. Moreover, the TGI with TK-10 renal, in the assay with M14 melanoma, in the assay with SK-MEL-28 melanoma and in the assay on SF-295 CNS was greater than 100 µM each time.

As for `O=C1OC(C(O)CO)C(=O)C1=O` (stereo not given), the GI50 in the assay with MOLT-4 leukemia is 4120 µM; in the assay with HOP-62 NSCLC, 3720 µM; in the assay on MCF7 breast, 2350 µM; with A549 NSCLC it was 9790 µM; with HCC-2998 colon, greater than 10000 µM; in the assay with UACC-257 melanoma it was greater than 10000 µM. Further, the GI50 in the assay on TK-10 renal was 2080 µM; in the assay on M14 melanoma, 6700 µM; in the assay on SK-MEL-28 melanoma, greater than 10000 µM; in the assay with SF-295 CNS, 7430 µM. Besides, the TGI is greater than 10000 µM with MOLT-4 leukemia; 8570 µM in the assay with HOP-62 NSCLC; 5860 µM with MCF7 breast; greater than 10000 µM in the assay on A549 NSCLC; greater than 10000 µM in the assay on HCC-2998 colon; greater than 10000 µM with UACC-257 melanoma. For the same compound, the TGI was 3570 µM with TK-10 renal, greater than 10000 µM in the assay with M14 melanoma, greater than 10000 µM in the assay on SK-MEL-28 melanoma and greater than 10000 µM in the assay on SF-295 CNS.

Consider `O=C(N/N=C/c1ccc(Cl)cc1)c1ccc(C(F)(F)F)nc1Nc1cccc(C(F)(F)F)c1`, for which the GI50 with MOLT-4 leukemia is 0.731 µM; with HOP-62 NSCLC it was 2.47 µM; with MCF7 breast, 2.26 µM; in the assay on A549 NSCLC, 2.89 µM; in the assay with HCC-2998 colon, 4.3 µM; in the assay on UACC-257 melanoma, 2.43 µM. The GI50 with TK-10 renal is 2.85 µM; with M14 melanoma, 2.54 µM; with SK-MEL-28 melanoma, 2.54 µM; in the assay with SF-295 CNS it was 1.17 µM. Besides, the TGI with MOLT-4 leukemia amounted to 5.3 µM; in the assay on HOP-62 NSCLC, 10.9 µM; with MCF7 breast it was 10.8 µM; with A549 NSCLC it was 9.61 µM; in the assay with HCC-2998 colon it was 17.3 µM; in the assay with UACC-257 melanoma, 8.99 µM. The TGI stood at 16.8 µM with TK-10 renal, 10 µM with M14 melanoma, 10.3 µM in the assay on SK-MEL-28 melanoma and 4.62 µM in the assay with SF-295 CNS.

For the compound `C=C1C(=O)O[C@@H]2/C=C(\C)CC/C=C(/COC(C)=O)C[C@@H](OC(C)=O)[C@@H]12`, the TGI with MOLT-4 leukemia is 16.9 µM; with HOP-62 NSCLC, 72.6 µM; in the assay on MCF7 breast, 17 µM; with A549 NSCLC, greater than 100 µM; in the assay with HCC-2998 colon it was 30.2 µM; in the assay with UACC-257 melanoma, 32.2 µM. For the same compound, the TGI is 23.2 µM with TK-10 renal, 27.1 µM with M14 melanoma, 23.5 µM with SK-MEL-28 melanoma and greater than 100 µM in the assay with SF-295 CNS.

Turning to `N=C1C(c2nc3ccccc3s2)=C(O)CN1c1cc(C(F)(F)F)ccc1Cl`, the GI50 in the assay on MOLT-4 leukemia was 16.3 µM; with HOP-62 NSCLC, 18.4 µM; in the assay on MCF7 breast, 16.9 µM; in the assay on A549 NSCLC, 21.1 µM; in the assay with HCC-2998 colon it was 2.73 µM; in the assay on UACC-257 melanoma it was 7.65 µM. Further, the GI50 was 52.1 µM with TK-10 renal, 3.21 µM with M14 melanoma, 69 µM with SK-MEL-28 melanoma and 16.2 µM in the assay with SF-295 CNS. The TGI with MOLT-4 leukemia is greater than 100 µM; with HOP-62 NSCLC, greater than 100 µM; with MCF7 breast, 92.1 µM; in the assay on A549 NSCLC, greater than 100 µM; with HCC-2998 colon it was 16.3 µM; in the assay on UACC-257 melanoma, 46.1 µM. Further, the TGI with TK-10 renal was greater than 100 µM; with M14 melanoma it was 11.1 µM; in the assay with SK-MEL-28 melanoma it was greater than 100 µM; in the assay with SF-295 CNS, greater than 100 µM.

As for `COC(=O)C1=CNC=C(C(=O)OC)C1C1=CC(=O)C(C)=CC1=O`, the GI50 was 2.16 µM in the assay on MOLT-4 leukemia; 14.8 µM with HOP-62 NSCLC; 16.7 µM in the assay on MCF7 breast; 19.6 µM with A549 NSCLC; 14.9 µM with HCC-2998 colon; 16.4 µM in the assay on UACC-257 melanoma. Moreover, the GI50 with TK-10 renal is 6.2 µM; in the assay on M14 melanoma, 15.2 µM; in the assay with SK-MEL-28 melanoma, 24.3 µM; in the assay with SF-295 CNS, 19.7 µM. The TGI was 5.9 µM in the assay on MOLT-4 leukemia; 28.2 µM in the assay on HOP-62 NSCLC; 47.5 µM in the assay with MCF7 breast; 42.1 µM in the assay with A549 NSCLC; 28.1 µM in the assay on HCC-2998 colon; 31.1 µM in the assay with UACC-257 melanoma. Moreover, the TGI in the assay on TK-10 renal is 15.5 µM; with M14 melanoma, 29.1 µM; with SK-MEL-28 melanoma, greater than 59.6 µM; with SF-295 CNS, 40.1 µM.

Consider `CC(C)n1nc(-c2cc3cc(O)ccc3[nH]2)c2c(N)ncnc21`, for which the GI50 with MOLT-4 leukemia was 0.315 µM; in the assay on HOP-62 NSCLC it was 0.393 µM; in the assay with MCF7 breast, 0.128 µM; in the assay on A549 NSCLC it was 0.313 µM; in the assay on HCC-2998 colon, 0.572 µM; in the assay with UACC-257 melanoma, 0.161 µM. Further, the GI50 in the assay with TK-10 renal is 0.178 µM; in the assay on M14 melanoma, 0.151 µM; with SK-MEL-28 melanoma, 0.12 µM; in the assay on SF-295 CNS it was 0.122 µM. In addition, the TGI is 6.2 µM in the assay with MOLT-4 leukemia; 3.56 µM in the assay on HOP-62 NSCLC; 7.86 µM in the assay with MCF7 breast; 2.67 µM with A549 NSCLC; 17.8 µM in the assay with HCC-2998 colon; 1.7 µM in the assay on UACC-257 melanoma. Further, the TGI amounted to 2.31 µM in the assay with TK-10 renal, 1.8 µM with M14 melanoma, 1.67 µM in the assay with SK-MEL-28 melanoma and 0.87 µM in the assay on SF-295 CNS.

As to `COc1ccc(Cn2cc3c(c2-c2ccccc2)CC(C)(C)c2cnoc2-3)cc1`, the GI50 with MOLT-4 leukemia was 2.82 µM; in the assay with HOP-62 NSCLC, 4.05 µM; with MCF7 breast it was 0.87 µM; in the assay on A549 NSCLC, 3.17 µM; in the assay with HCC-2998 colon, 2.91 µM; in the assay with UACC-257 melanoma, 9.64 µM. The GI50 in the assay with TK-10 renal was 2.91 µM; in the assay on M14 melanoma, 2.03 µM; with SK-MEL-28 melanoma it was 6.86 µM; with SF-295 CNS, 0.732 µM. Further, the TGI in the assay with MOLT-4 leukemia, in the assay with HOP-62 NSCLC, in the assay on MCF7 breast, with A549 NSCLC, in the assay with HCC-2998 colon and with UACC-257 melanoma was greater than 100 µM throughout. Further, the TGI in the assay on TK-10 renal was greater than 100 µM; with M14 melanoma, greater than 100 µM; with SK-MEL-28 melanoma, greater than 100 µM; in the assay with SF-295 CNS it was 11.6 µM.

These data come from PubChem BioAssay (NCI).
